# What was measured:
# Assay type in all cases: functional
# Settings in all cases: read-out: IZ
# Erwinia amylovora [1] = assay: Antibacterial activity against Erwinia amylovora at 0.1 ug after 12 hrs by agar diffusion assay
# Erwinia amylovora [2] = assay: Antibacterial activity against Erwinia amylovora at 1 ug after 12 hrs by agar diffusion assay
# Erwinia amylovora [3] = assay: Antibacterial activity against Erwinia amylovora at 100 ug after 12 hrs by agar diffusion assay
# Erwinia amylovora [4] = assay: Antibacterial activity against Erwinia amylovora at 10 ug after 12 hrs by agar diffusion assay
Compound,zone of inhibition at 0.1 µg/disc (Erwinia amylovora [1]) [mm],zone of inhibition at 1 µg/disc (Erwinia amylovora [2]) [mm],zone of inhibition at 100 µg/disc (Erwinia amylovora [3]) [mm],zone of inhibition at 10 µg/disc (Erwinia amylovora [4]) [mm]
C=C1C[C@@H](C(=O)N[C@H](C(=O)O)C(C)C)NC1=N,10,19,–,–
C=C1C[C@H](C(=O)N[C@H](C(=O)O)C(C)C)NC1=N,–,6,19,10
C=C1C[C@@H](C(=O)N[C@@H](C(=O)O)C(C)C)NC1=N,–,–,10,–

# — ChEMBL document CHEMBL1155397, “Synthesis of amino acid conjugates to 2-imino-3-methylene-5-carboxypyrrolidine and 2-imino-3-methylene-6-carboxypiperidine” (2010)
